# Measurements taken from PubChem BioAssay AID328 (DTP/NCI, 2004).
# Where “and” joins values, the source holds several entries; their conditions need not be identical. Identical values can stand only once. Toxic doses and inconclusive results are not listed.
# System: BDF1 mice, P388 leukemia ip, median survival T/C
# Assay: NCI In Vivo Anticancer Drug Screen. Data for tumor model P388 Leukemia (intraperitoneal) in B6D2F1 (BDF1) mice
# Settings: endpoint: median survival time, higher = longer survival
# Procedure, shortened: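 Compound-treated tumour-bearing mice were compared with vehicle-treated controls. Survival was recorded, and the value is the treated-group measurement divided by the control-group measurement (T/C).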
# [1] = dose: 100.0 mg/kg/injection, schedule: Q01DX009 (ip), vehicle: Klucel (hydroxypropylcellulose) (HPC)
# [2] = dose: 50.0 mg/kg/injection, schedule: Q01DX009 (ip), vehicle: saline with Tween-80
# [3] = dose: 100.0 mg/kg/injection, schedule: Q01DX009 (ip), vehicle: saline with Tween-80
# [4] = dose: 200.0 mg/kg/injection, schedule: Q01DX009 (ip), vehicle: saline with Tween-80
# [5] = dose: 100.0 mg/kg/injection, schedule: Q04DX003 (ip), vehicle: Klucel (hydroxypropylcellulose) (HPC)
# [6] = dose: 200.0 mg/kg/injection, schedule: Q04DX003 (ip), vehicle: Klucel (hydroxypropylcellulose) (HPC)
# [7] = dose: 25.0 mg/kg/injection, schedule: Q01DX009 (ip), vehicle: saline with Tween-80
# [8] = dose: 100.0 mg/kg/injection, schedule: Q04DX003 (ip), vehicle: saline
# [9] = dose: 200.0 mg/kg/injection, schedule: Q04DX003 (ip), vehicle: saline
# [10] = dose: 100.0 mg/kg/injection, schedule: Q01DX001 (ip), vehicle: saline with Tween-80
# [11] = dose: 200.0 mg/kg/injection, schedule: Q01DX001 (ip), vehicle: saline with Tween-80
# [12] = dose: 50.0 mg/kg/injection, schedule: Q04DX003 (ip), vehicle: saline
smiles,measurement,setting,value
CC(=NCc1ccccc1)C(C)(O)c1ccccc1 (stereo unspecified),T/C,"dose: 100.0 mg/kg/injection, schedule: Q01DX001 (ip), vehicle: Klucel (hydroxypropylcellulose) (HPC)",100 % of control
same,T/C,"dose: 100.0 mg/kg/injection, schedule: Q01DX001 (ip), vehicle: saline",109 % of control
same,T/C,[1],110 % of control
same,T/C,"dose: 200.0 mg/kg/injection, schedule: Q01DX001 (ip), vehicle: Klucel (hydroxypropylcellulose) (HPC)",104 % of control
same,T/C,"dose: 200.0 mg/kg/injection, schedule: Q01DX001 (ip), vehicle: saline",100 % of control
same,T/C,"dose: 200.0 mg/kg/injection, schedule: Q01DX009 (ip), vehicle: Klucel (hydroxypropylcellulose) (HPC)",100 % of control
same,T/C,"dose: 400.0 mg/kg/injection, schedule: Q01DX001 (ip), vehicle: Klucel (hydroxypropylcellulose) (HPC)",100 % of control
same,T/C,"dose: 400.0 mg/kg/injection, schedule: Q01DX001 (ip), vehicle: saline",118 % of control
same,T/C,"dose: 400.0 mg/kg/injection, schedule: Q01DX009 (ip), vehicle: Klucel (hydroxypropylcellulose) (HPC)",105 % of control
CC1=NN(CCO)C(=O)C1,T/C,[2],95 % of control
same,T/C,[3],92 % of control
same,T/C,[4],93 % of control
COc1ccc(OC(=O)Nc2ccccc2OC)cc1,T/C,[5],91 % of control
same,T/C,[6],91 % of control
same,T/C,"dose: 400.0 mg/kg/injection, schedule: Q04DX003 (ip), vehicle: Klucel (hydroxypropylcellulose) (HPC)",87 % of control
O=S(=O)(c1ccccc1CO)c1ccccc1CO,T/C,"dose: 100.0 mg/kg/injection, schedule: Q04DX002 (ip), vehicle: saline with Tween-80",98 % of control
same,T/C,"dose: 200.0 mg/kg/injection, schedule: Q04DX002 (ip), vehicle: saline with Tween-80",95 % of control
same,T/C,"dose: 400.0 mg/kg/injection, schedule: Q04DX002 (ip), vehicle: saline with Tween-80",100 % of control
CC(=O)Nc1nc(Cl)c([N+](=O)[O-])c(SCc2ccccc2)n1,T/C,"dose: 12.5 mg/kg/injection, schedule: Q01DX009 (ip), vehicle: saline with Tween-80",94 % of control
same,T/C,[7],98 % of control
same,T/C,"dose: 25.0 mg/kg/injection, schedule: Q04DX003 (ip), vehicle: saline with Tween-80",116 % of control
same,T/C,[2],107 % of control
same,T/C,"dose: 50.0 mg/kg/injection, schedule: Q04DX003 (ip), vehicle: saline with Tween-80",114 % of control
same,T/C,[3],96 % of control
same,T/C,"dose: 100.0 mg/kg/injection, schedule: Q04DX003 (ip), vehicle: saline with Tween-80",114 % of control
same,T/C,"dose: 200.0 mg/kg/injection, schedule: Q04DX003 (ip), vehicle: saline with Tween-80",96 % of control
C[N+]1(C2CCC3CCC2C3O)CCCCC1 (stereo unspecified),T/C,[8],90 % of control
same,T/C,[9],122 % of control
CNC(=O)c1nc(C)c(C)[nH]c1=O,T/C,"dose: 25.0 mg/kg/injection, schedule: Q01DX009 (ip), vehicle: water",97 % of control
same,T/C,"dose: 50.0 mg/kg/injection, schedule: Q01DX009 (ip), vehicle: water",90 % of control
same,T/C,"dose: 50.0 mg/kg/injection, schedule: Q04DX003 (ip), vehicle: water",103 % of control
same,T/C,"dose: 100.0 mg/kg/injection, schedule: Q01DX009 (ip), vehicle: water",99 % of control
same,T/C,"dose: 200.0 mg/kg/injection, schedule: Q01DX009 (ip), vehicle: water",90 % of control
same,T/C,"dose: 400.0 mg/kg/injection, schedule: Q04DX003 (ip), vehicle: water",100 % of control
CC(=O)OC1CCCc2c1nc1ccccc1[n+]2[O-] (stereo unspecified),T/C,[2],88 % of control
same,T/C,[3],100 % of control
same,T/C,[4],96 % of control
COC(=O)C(NC(=O)c1ccccc1)=C(COC(C)=O)COC(C)=O,T/C,"dose: 100.0 mg/kg/injection, schedule: Q04DX003 (ip), vehicle: saline sonified",95 % of control
same,T/C,"dose: 200.0 mg/kg/injection, schedule: Q04DX003 (ip), vehicle: saline sonified",100 % of control
same,T/C,"dose: 400.0 mg/kg/injection, schedule: Q04DX003 (ip), vehicle: saline sonified",110 % of control
Cc1ccc(S(=O)(=O)OC2CS(=O)(=O)C2)cc1,T/C,[7],102 % of control
same,T/C,[2],100 % of control
same,T/C,[3],102 % of control
same,T/C,[4],102 % of control
O=C(/C=N/O)/C=N/O (tested in a mixture with another compound),T/C,"dose: 6.0 mg/kg/injection, schedule: Q01DX009 (ip), vehicle: saline",108 % of control
same,T/C,"dose: 6.0 mg/kg/injection, schedule: Q04DX003 (ip), vehicle: saline",100 % of control
same,T/C,"dose: 12.0 mg/kg/injection, schedule: Q01DX009 (ip), vehicle: saline",100 % of control
same,T/C,"dose: 12.0 mg/kg/injection, schedule: Q04DX003 (ip), vehicle: saline",113 % of control
same,T/C,"dose: 25.0 mg/kg/injection, schedule: Q01DX009 (ip), vehicle: saline",100 % of control
same,T/C,"dose: 25.0 mg/kg/injection, schedule: Q04DX003 (ip), vehicle: saline",95 % of control
NC(Cc1c[nH]c2ccc(N(CCCl)CCCl)cc12)C(=O)O (stereo unspecified),T/C,"dose: 0.5 mg/kg/injection, schedule: Q01DX010 (ip), vehicle: saline",218 % of control
same,T/C,"dose: 1.0 mg/kg/injection, schedule: Q01DX010 (ip), vehicle: saline",290 % of control
N#CCC(N)=C(C#N)C#N,T/C,"dose: 25.0 mg/kg/injection, schedule: Q01DX009 (ip), vehicle: Klucel (hydroxypropylcellulose) (HPC)",100 % of control
same,T/C,"dose: 25.0 mg/kg/injection, schedule: Q04DX003 (ip), vehicle: Klucel (hydroxypropylcellulose) (HPC)",95 % of control
same,T/C,"dose: 50.0 mg/kg/injection, schedule: Q01DX009 (ip), vehicle: Klucel (hydroxypropylcellulose) (HPC)",87 % of control
same,T/C,"dose: 50.0 mg/kg/injection, schedule: Q04DX003 (ip), vehicle: Klucel (hydroxypropylcellulose) (HPC)",104 % of control
same,T/C,[1],95 % of control
same,T/C,[5],100 % of control and 104 % of control
CSCC1(O)CCCCC1,T/C,[2],111 % of control
same,T/C,[3],101 % of control
same,T/C,[4],112 % of control
CC1(C)C(O)(C#N)C(C)(C)C1(O)C#N (stereo unspecified),T/C,"dose: 3.13 mg/kg/injection, schedule: Q04DX003 (ip), vehicle: saline",100 % of control
same,T/C,"dose: 6.25 mg/kg/injection, schedule: Q04DX003 (ip), vehicle: saline",109 % of control
same,T/C,"dose: 12.5 mg/kg/injection, schedule: Q04DX003 (ip), vehicle: saline",95 % of control
Cc1ccc(NCN2C(=O)NC(c3ccccc3)(c3ccccc3)C2=O)cc1,T/C,[10],90 % of control
same,T/C,[11],95 % of control
COc1ccc(/C=C(/C)[N+](=O)[O-])cc1OC,T/C,"dose: 50.0 mg/kg/injection, schedule: Q01DX001 (ip), vehicle: saline with Tween-80",109 % of control
same,T/C,[10],113 % of control
same,T/C,[5],104 % of control
same,T/C,[11],118 % of control
same,T/C,[6],109 % of control
N#Cc1c(NN)n(C2OC(CO)C(O)C2O)c2ncnc(N)c12 (stereo unspecified),T/C,[12],100 % of control
same,T/C,"dose: 83.0 mg/kg/injection, schedule: Q04DX003 (ip), vehicle: saline",100 % of control
Nc1cc(Cl)c(O)c(Cl)c1,T/C,[12],100 % of control
same,T/C,[8],100 % of control
same,T/C,[9],95 % of control
COC(=O)Cc1[nH]ccc1C(=O)OC,T/C,[10],103 % of control
same,T/C,[11],109 % of control
same,T/C,"dose: 400.0 mg/kg/injection, schedule: Q01DX001 (ip), vehicle: saline with Tween-80",120 % of control
O=C1c2ccccc2-c2cc3ccccc3cc21,T/C,"dose: 75.0 mg/kg/injection, schedule: Q04DX003 (ip), vehicle: saline sonified",100 % of control
same,T/C,"dose: 150.0 mg/kg/injection, schedule: Q04DX003 (ip), vehicle: saline sonified",110 % of control
same,T/C,"dose: 300.0 mg/kg/injection, schedule: Q04DX003 (ip), vehicle: saline sonified",110 % of control
O=C(CSc1ccccc1)NCc1cnccn1,T/C,[12],108 % of control
same,T/C,[8],92 % of control
same,T/C,[9],104 % of control
same,T/C,"dose: 400.0 mg/kg/injection, schedule: Q04DX003 (ip), vehicle: saline",100 % of control
